pIC50: −log10 of the molar value. Calls of active or inactive are those of the source. The rule behind the calls is not given here.
Assays:
[1] = target: T1, Acyl-CoA desaturase 1 (Rattus norvegicus, UniProt P07308); assay: Inhibition of rat SCD1
T1 sequence (P07308 whole entry): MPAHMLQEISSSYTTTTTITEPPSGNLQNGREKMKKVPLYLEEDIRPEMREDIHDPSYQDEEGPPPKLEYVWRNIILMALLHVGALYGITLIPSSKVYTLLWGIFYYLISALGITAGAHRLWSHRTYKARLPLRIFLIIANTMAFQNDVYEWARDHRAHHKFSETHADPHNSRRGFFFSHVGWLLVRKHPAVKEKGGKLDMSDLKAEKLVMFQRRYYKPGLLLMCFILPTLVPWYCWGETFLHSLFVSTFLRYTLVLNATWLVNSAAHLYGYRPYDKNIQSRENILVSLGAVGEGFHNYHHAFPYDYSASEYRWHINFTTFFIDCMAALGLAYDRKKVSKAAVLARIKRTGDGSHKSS

[2] = target: T2, Stearoyl-CoA desaturase (Homo sapiens, UniProt O00767); assay: Inhibition of human SCD1 expressed in human HepG2 cells assessed as conversion of [14C]stearic acid to [14C]oleic acid; type: cell-based
T2 sequence (O00767 whole entry): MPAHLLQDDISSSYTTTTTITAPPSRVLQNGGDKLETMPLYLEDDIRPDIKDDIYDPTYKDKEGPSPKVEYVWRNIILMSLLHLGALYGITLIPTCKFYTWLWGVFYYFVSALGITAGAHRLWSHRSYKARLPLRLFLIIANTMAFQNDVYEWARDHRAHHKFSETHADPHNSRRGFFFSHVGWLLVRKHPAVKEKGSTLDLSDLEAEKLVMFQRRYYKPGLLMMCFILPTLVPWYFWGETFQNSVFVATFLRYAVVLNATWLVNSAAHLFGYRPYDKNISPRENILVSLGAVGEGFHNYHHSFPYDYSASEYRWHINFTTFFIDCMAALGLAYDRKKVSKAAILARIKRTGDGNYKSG

[3] = target: T1, Acyl-CoA desaturase 1; assay: Inhibition of SCD1 in Sprague-Dawley rat hepatocytes assessed as conversion of [14C]oleic acid formation by HPLC analysis; type: cell-based, Hepatocyte
[4] = system: Mus musculus; assay: Acute antidiabetic activity in high fat diet fed C57/BL6 mouse eDIO model assessed as increase in glucose clearance at 100 mg/kg, po administered 1 hr prior to glucose challenge by oGTT assay; type: functional
[5] = Drug uptake in high sucrose/fat free diet fed C57/BL6 mouse liver at 100 mg/kg, po after 3 hrs; type: ADME, organism-based; parameters: dose 100 mg/kg, route oral; conditions: read-out: Drug uptake
[6] = Plasma concentration in high sucrose/fat free diet fed C57/BL6 mouse at 100 mg/kg, po after 3 hrs; type: ADME, organism-based; parameters: dose 100 mg/kg, route oral
[7] = Drug uptake in high fat diet fed C57/BL6 mouse eDIO model whole blood at 100 mg/kg, po after 3 hrs; type: ADME, organism-based; parameters: dose 100 mg/kg, route oral; conditions: read-out: Drug uptake
[8] = system: Nucleic Acid; assay: Ratio of drug uptake in high fat diet fed C57/BL6 mouse eDIO model whole blood to high sucrose/fat free diet fed C57/BL6 mouse plasma; type: ADME; conditions: in vivo
[9] = system: Mus musculus; assay: Inhibition of SCD activity in high sucrose/fat free diet fed C57/BL6 mouse liver assessed as reduction in conversion of [14C]stearic acid to [14C]oleic acid at 100 mg/kg, po; type: functional
[10] = Ratio of drug uptake in left median liver lobe to harderian gland in C57/BL6 mouse at 10 mg/kg, po after 6 hrs; type: ADME, organism-based; parameters: dose 10 mg/kg, route oral; conditions: in vivo
[11] = system: HepG2; assay: Selectivity ratio of IC50 for human SCD1 expressed in human HepG2 cells to IC50 for rat SCD1 in Sprague-Dawley rat hepatocytes; type: cell-based

Structure (SMILES)	pIC50 [1]	pIC50 [2]	pIC50 [3]	further results
O=C(O)c1cncc(-c2ccc(N3CCC(Oc4cc(F)ccc4Br)CC3)nn2)n1	6.11	–	–	–
O=C(O)c1cncc(-c2ccc(N3CCC(Oc4ccccc4C(F)(F)F)CC3)nn2)c1	6.89	< 4.70	5.89	–
O=C(O)c1cncc(-c2ccc(N3CCC(Oc4c(F)cc(F)cc4Br)CC3)nn2)c1	< 4.70	–	–	Activity [4]: inactive; concentration at 3 h [5]: 30200 nM; concentration at 3 h [6]: 750 nM; concentration at 3 h [7]: 730 nM; Ratio [8]: < 2; inhibition [9]: inactive
O=C(O)Cc1cncc(-c2ccc(N3CCC(Oc4cc(F)ccc4Br)CC3)nn2)c1	7.70	6.11	7.12	Ratio [10]: 4; Ratio IC50 [11]: 10
FC(F)(F)c1ccccc1OC1CCN(c2ccc(-c3cncc(-c4nnn[nH]4)c3)nn2)CC1	4.96	–	–	–
O=C(O)c1cncc(-c2ccc(N3CCC(Oc4ccccc4Br)CC3)nn2)c1	7.33	4.74	5.78	Ratio IC50 [11]: 11
O=C(O)c1cncc(-c2ccc(N3CCC(Oc4cc(F)c(F)cc4Br)CC3)nn2)c1	7.82	5.08	6.25	–
O=C(O)c1cncc(-c2ccc(N3CCC(Oc4cc(F)ccc4Br)CC3)nc2)c1	7.62	5.62	5.72	Ratio [10]: 3
O=C(O)c1ccc(-c2ccc(N3CCC(Oc4cc(F)ccc4Br)CC3)nn2)nc1	8.10	6.89	6.80	–
O=C(O)c1cncc(-c2cnc(N3CCC(Oc4cc(F)ccc4Br)CC3)nn2)c1	7.70	5.35	6.57	Ratio [10]: 1.5
O=C(O)c1cncc(-c2ccc(N3CCC(Oc4ccccc4I)CC3)nn2)c1	7.57	5.29	6.00	Ratio IC50 [11]: 5
O=C(O)c1cccc(-c2ccc(N3CCC(Oc4ccccc4C(F)(F)F)CC3)nn2)c1	6.97	5.95	–	–
O=C(O)c1cncc(-c2ccc(N3CCC(Oc4cc(F)ccc4Br)CC3)cn2)c1	5.91	–	–	–
O=C(O)c1cncc(-c2cnc(N3CCC(Oc4cc(F)ccc4Br)CC3)cn2)c1	7.16	5.17	5.87	Ratio [10]: 12
O=C(O)c1cncc(-c2ccc(N3CCC(Oc4ccccc4Cl)CC3)nn2)c1	6.78	< 5.00	5.72	–
O=C(O)Cc1ccc(N2CCC(Oc3ccccc3C(F)(F)F)CC2)nn1	5.57	–	–	–
O=C(O)c1cncc(-c2cnc(N3CCC(Oc4cc(F)ccc4Br)CC3)nc2)c1	7.11	5.03	5.52	Ratio [10]: 8
O=C(O)c1cncc(-c2ccc(N3CCC(Oc4ccccc4C(F)(F)F)CC3)cc2)c1	5.07	–	–	–
O=C(O)c1ccc(-c2ccc(N3CCC(Oc4ccccc4C(F)(F)F)CC3)nn2)cc1	6.98	6.26	–	–
O=C(O)c1ccc(N2CCC(Oc3ccccc3C(F)(F)F)CC2)nn1	< 5.00	–	–	–
